Test results: paper PMC7281072 (Cancers, 2020)

Columns and labels:
[1] = tested on: ERK1,2 phosphorylation; experiment: ERK1/2 phosphorylation ELISA, OVCAR-5 cells; type: cell-based, human; conditions: for Vmax ± SE, pERK 1/2 inhibition: Michaelis Menten model; for IC50: Homo sapiens, read-out: IC50, pERK 1/2 inhibition
[2] = tested on: ERK1,2 phosphorylation; experiment: ERK1/2 phosphorylation ELISA, SK-OV-3 cells; type: cell-based, human; conditions: for Vmax ± SE, pERK 1/2 inhibition: Michaelis Menten model; for IC50: Homo sapiens, read-out: IC50, pERK 1/2 inhibition
[3] = tested on: ERK1,2 phosphorylation; experiment: ERK1/2 phosphorylation ELISA, UWB1.289 cells; type: cell-based, human; conditions: for Vmax ± SE, pERK 1/2 inhibition: Michaelis Menten model; for IC50: Homo sapiens, read-out: IC50, pERK 1/2 inhibition
[4] = tested on: ERK1,2 phosphorylation; experiment: ERK1/2 phosphorylation ELISA, UWB1.289+BRCA1 cells; type: cell-based, human; conditions: for Vmax ± SE, pERK 1/2 inhibition: Michaelis Menten model; for IC50: Homo sapiens, read-out: IC50, pERK 1/2 inhibition
[5] = tested on: AKT1,2 phosphorylation; experiment: AKT phosphorylation ELISA, OVCAR-5 cells; type: cell-based, human; conditions: for Vmax ± SE, pAKT 1/2 inhibition: Michaelis Menten model; for IC50: Homo sapiens, read-out: IC50, pAKT 1/2 inhibition
[6] = tested on: AKT1,2 phosphorylation; experiment: AKT phosphorylation ELISA, OVCAR-3 cells; type: cell-based, human; conditions: for Vmax ± SE, pAKT 1/2 inhibition: Michaelis Menten model; for IC50: Homo sapiens, read-out: IC50, pAKT 1/2 inhibition
[7] = tested on: AKT1,2 phosphorylation; experiment: AKT phosphorylation ELISA, SK-OV-3 cells; type: cell-based, human; conditions: for Vmax ± SE, pAKT 1/2 inhibition: Michaelis Menten model; for IC50: Homo sapiens, read-out: IC50, pAKT 1/2 inhibition
[8] = tested on: AKT1,2 phosphorylation; experiment: AKT phosphorylation ELISA, UWB1.289 cells; type: cell-based, human; conditions: for Vmax ± SE, pAKT 1/2 inhibition: Michaelis Menten model; for IC50: Homo sapiens, read-out: IC50, pAKT 1/2 inhibition
[9] = tested on: AKT1,2 phosphorylation; experiment: AKT phosphorylation ELISA, UWB1.289+BRCA1 cells; type: cell-based, human; parameters: Vmax ± SE, pAKT 1/2 inhibition: unit not given beside the values; conditions: for Vmax ± SE, pAKT 1/2 inhibition: Michaelis Menten model; for IC50: Homo sapiens, read-out: IC50, pAKT 1/2 inhibition
[10] = tested on: OVCAR-5 human ovarian adenocarcinoma xenograft; parameters: species or system CB17 SCID mice; conditions: mouse, in vivo
[11] = tested on: pAKT; experiment: Western immunoblotting densitometry, pAKT, OVCAR-3 cells; type: cell-based, human; conditions: 25 μM; for ratio [pAKT]/[GAPDH] band intensity: OVCAR-3 cells; for ratio [pAKT]/[GAPDH] band intensity, single blot (panel A): panel A upper set, cell line not given, control ratio 1.21
[12] = tested on: pERK1,2; experiment: Western immunoblotting densitometry, pERK1,2, OVCAR-3 cells; type: cell-based, human; conditions: 25 μM; for ratio [pERK1+pERK2]/[GAPDH] band intensity: OVCAR-3 cells; for ratio [pERK1+pERK2]/[GAPDH] band intensity, single blot (panel A): panel A upper set, cell line not given
[13] = tested on: pAKT; experiment: Western immunoblotting densitometry, pAKT, SKOV-3 cells; type: cell-based, human; conditions: 25 μM; for ratio [pAKT]/[GAPDH] band intensity: SKOV-3 cells; for ratio [pAKT]/[GAPDH] band intensity, single blot (panel A): panel A lower set, cell line not given, control ratio 0.996
[14] = tested on: pERK1,2; experiment: Western immunoblotting densitometry, pERK1,2, SKOV-3 cells; type: cell-based, human; conditions: 25 μM; for ratio [pERK1+pERK2]/[GAPDH] band intensity: SKOV-3 cells; for ratio [pERK1+pERK2]/[GAPDH] band intensity, single blot (panel A): panel A lower set, cell line not given
[15] = tested on: OVCAR-3 cancer cell line
[16] = tested on: OVCAR-5 cancer cell line
[17] = tested on: SK-OV-3 cancer cell line
[18] = tested on: UWB1.289 cancer cell line
[19] = tested on: UWB1.289+BRCA1 cancer cell line
[20] = tested on: CB17 SCID mice; conditions: both, mouse, in vivo, ip
[21] = tested on: OVCAR-3 cancer cell line; experiment: cells; conditions: Homo sapiens, OVCAR-3, 48 h
[22] = tested on: OVCAR-5 cancer cell line; experiment: cells; conditions: Homo sapiens, OVCAR-5, 48 h
[23] = tested on: SK-OV-3 cancer cell line; experiment: cells; conditions: Homo sapiens, SK-OV-3, 48 h
[24] = tested on: UWB1.289 cancer cell line; experiment: cells; conditions: Homo sapiens, UWB1289, 48 h
[25] = tested on: UWB1.289+BRCA1 cancer cell line; experiment: cells; conditions: Homo sapiens, 48 h
[26] = read-out: GI50 (50% Growth Inhibition)
[27] = read-out: IC50 (cytotoxic effect)

C[C@]12CC[C@@H]3c4ccc(OC(=O)CCOc5ccc(N(CCCl)CCCl)cc5)cc4CC[C@H]3[C@@H]1CCC(=O)N2 [ENGA-L08E, 12a-methyl-2-oxo-1,2,3,4,4a,4b,5,6,10b,11,12,12a-dodecahydronaphtho[2,1-f]quinolin-8-yl 3-(4-(bis (2-chloroethyl)amino)phenoxy) propanoate]
Vmax ± SE, pERK 1/2 inhibition ([1]; 15 min): 63.85 ± 3.62
Vmax ± SE, pERK 1/2 inhibition ([1]; 30 min): 67.94 ± 4.54
Vmax ± SE, pERK 1/2 inhibition ([1]; 60 min): 69.19 ± 2.95
IC50 ([1]; 0.25 h, 15 min): 32.4 µM
IC50 ([1]; 0.5 h, 30 min): 17 µM
IC50 ([1]; 1 h, 60 min): 10.9 µM
Vmax ± SE, pERK 1/2 inhibition ([2]; 15 min): 45.92 ± 2.07
Vmax ± SE, pERK 1/2 inhibition ([2]; 30 min): 71.49 ± 0.55
Vmax ± SE, pERK 1/2 inhibition ([2]; 60 min): 74.32 ± 0.43
IC50 ([2]; 0.25 h, 15 min): > 50 µM
IC50 ([2]; 0.5 h, 30 min): 11.2 µM
IC50 ([2]; 1 h, 60 min): 7.67 µM
Vmax ± SE, pERK 1/2 inhibition ([3]; 15 min): 73.97 ± 1.64
Vmax ± SE, pERK 1/2 inhibition ([3]; 60 min): 88.83 ± 2.13
IC50 ([3]; UWB1289, 0.25 h, 15 min): 7.02 µM
IC50 ([3]; UWB1289, 0.5 h, 30 min): 4.25 µM
IC50 ([3]; UWB1289, 1 h, 60 min): 3.67 µM
Vmax ± SE, pERK 1/2 inhibition ([4]; 15 min): 56.97 ± 0.61
Vmax ± SE, pERK 1/2 inhibition ([4]; 30 min): 66.56 ± 1.99
Vmax ± SE, pERK 1/2 inhibition ([4]; 60 min): 71.72 ± 1.86
IC50 ([4]; 0.25 h, 15 min): 25 µM
IC50 ([4]; 0.5 h, 30 min): 10.7 µM
IC50 ([4]; 1 h, 60 min): 8.56 µM
Vmax ± SE, pAKT 1/2 inhibition ([5]; 15 min): 60.45 ± 3.65
Vmax ± SE, pAKT 1/2 inhibition ([5]; 30 min): 61.17 ± 0.62
Vmax ± SE, pAKT 1/2 inhibition ([5]; 60 min): 61.47 ± 2.03
IC50 ([5]; 0.25 h, 15 min): > 50 µM
IC50 ([5]; 0.5 h, 30 min): 34.2 µM
IC50 ([5]; 1 h, 60 min): 28.3 µM
Vmax ± SE, pAKT 1/2 inhibition ([6]; 15 min): 65.97 ± 1.60
Vmax ± SE, pAKT 1/2 inhibition ([6]; 30 min): 75.64 ± 0.99
Vmax ± SE, pAKT 1/2 inhibition ([6]; 60 min): 78.39 ± 4.18
IC50 ([6]; 0.25 h, 15 min): > 50 µM
IC50 ([6]; 0.5 h, 30 min): 12.8 µM
IC50 ([6]; 1 h, 60 min): 14.2 µM
Vmax ± SE, pAKT 1/2 inhibition ([7]; 15 min): 79.22 ± 0.89
Vmax ± SE, pAKT 1/2 inhibition ([7]; 30 min): 81.78 ± 2.53
Vmax ± SE, pAKT 1/2 inhibition ([7]; 60 min): 82.20 ± 1.68
IC50 ([7]; 0.25 h, 15 min): 29.6 µM
IC50 ([7]; 0.5 h, 30 min): 24.9 µM
IC50 ([7]; 1 h, 60 min): 21.8 µM
Vmax ± SE, pAKT 1/2 inhibition ([8]; 15 min): 63.02 ± 1.33
Vmax ± SE, pAKT 1/2 inhibition ([8]; 30 min): 68.23 ± 0.99
Vmax ± SE, pAKT 1/2 inhibition ([8]; 60 min): 70.28 ± 2.75
IC50 ([8]; UWB1289, 0.25 h, 15 min): 14.1 µM
IC50 ([8]; UWB1289, 0.5 h, 30 min): 8.24 µM
IC50 ([8]; UWB1289, 1 h, 60 min): 6.6 µM
Vmax ± SE, pAKT 1/2 inhibition ([9]; 15 min): 57.59 ± 1.42
Vmax ± SE, pAKT 1/2 inhibition ([9]; 30 min): 60.90 ± 3.82
Vmax ± SE, pAKT 1/2 inhibition ([9]; 60 min): 63.84 ± 5.49
IC50 ([9]; 0.25 h, 15 min): 36.2 µM
IC50 ([9]; 0.5 h, 30 min): 26.6 µM
IC50 ([9]; 1 h, 60 min): 19.4 µM
Median Overall Survival (OS) [10]: 127 days
Progression Free Survival (PFS) [10]: 34 days
Response Rate (RR) [10]: 100%
Cures (mice alive for 120 days after tumor inoculation) ([10]; ip): 3/5
MST (mean survival time) ([10]; ip): 94.8 ± 6.3 p < 0.01 Days
T/C% (mean survival time of treated versus saline controls) ([10]; ip): 187.8%
TI% (Tumor Inhibition) ([10]; ip): 131.0%
size of the primary tumor ([10]; ip): 113 ± 14 mm^3
ratio [pAKT]/[GAPDH] band intensity ([11]; 30min, control ratio 1.23): 0.93
ratio [pAKT]/[GAPDH] band intensity ([11]; 1h, control ratio 1.14): 0.60
ratio [pAKT]/[GAPDH] band intensity ([11]; 3h, control ratio 1.27): 0.52
ratio [pAKT]/[GAPDH] band intensity ([11]; 6h, control ratio 1.26): 0.47
ratio [pAKT]/[GAPDH] band intensity ([11]; 12h, control ratio 1.18): 0.48
ratio [pAKT]/[GAPDH] band intensity ([11]; 24h, control ratio 1.29): 0.54
ratio [pAKT]/[GAPDH] band intensity, single blot (panel A) ([11]; 1h): 0.40
ratio [pAKT]/[GAPDH] band intensity, single blot (panel A) ([11]; 3h): 0.34
ratio [pERK1+pERK2]/[GAPDH] band intensity ([12]; 30min, control ratio 1.71): 1.01
ratio [pERK1+pERK2]/[GAPDH] band intensity ([12]; 1h, control ratio 1.65): 0.94
ratio [pERK1+pERK2]/[GAPDH] band intensity ([12]; 3h, control ratio 1.99): 0.83
ratio [pERK1+pERK2]/[GAPDH] band intensity ([12]; 6h, control ratio 1.85): 0.76
ratio [pERK1+pERK2]/[GAPDH] band intensity ([12]; 12h, control ratio 1.82): 0.76
ratio [pERK1+pERK2]/[GAPDH] band intensity ([12]; 24h, control ratio 1.92): 0.84
ratio [pERK1+pERK2]/[GAPDH] band intensity, single blot (panel A) ([12]; 1h, control ratio 1.85): 0.51
ratio [pERK1+pERK2]/[GAPDH] band intensity, single blot (panel A) ([12]; 3h, control ratio 1.85): 0.28
ratio [pAKT]/[GAPDH] band intensity ([13]; 15min, control ratio 0.98): 1.04
ratio [pAKT]/[GAPDH] band intensity ([13]; 30min, control ratio 0.98): 0.66
ratio [pAKT]/[GAPDH] band intensity ([13]; 1h, control ratio 1.02): 0.63
ratio [pAKT]/[GAPDH] band intensity ([13]; 3h, control ratio 0.99): 0.52
ratio [pAKT]/[GAPDH] band intensity ([13]; 12h, control ratio 0.94): 0.50
ratio [pAKT]/[GAPDH] band intensity, single blot (panel A) ([13]; 1h): 0.22
ratio [pAKT]/[GAPDH] band intensity, single blot (panel A) ([13]; 3h): 0.20
ratio [pERK1+pERK2]/[GAPDH] band intensity ([14]; 15min, control ratio 1.70): 1.89
ratio [pERK1+pERK2]/[GAPDH] band intensity ([14]; 30min, control ratio 1.70): 1.61
ratio [pERK1+pERK2]/[GAPDH] band intensity ([14]; 1h, control ratio 1.78): 1.08
ratio [pERK1+pERK2]/[GAPDH] band intensity ([14]; 3h, control ratio 1.74): 0.89
ratio [pERK1+pERK2]/[GAPDH] band intensity ([14]; 12h, control ratio 1.61): 0.85
ratio [pERK1+pERK2]/[GAPDH] band intensity, single blot (panel A) ([14]; 1h, control ratio 1.78): 0.54
ratio [pERK1+pERK2]/[GAPDH] band intensity, single blot (panel A) ([14]; 3h, control ratio 1.78): 0.49
TGI (Total Growth Inhibition) [15]: 40 ± 2.7 μΜ
TGI (Total Growth Inhibition) [16]: 60 ± 2.7 μΜ
TGI (Total Growth Inhibition) [17]: 76 ± 7.2 μΜ
TGI (Total Growth Inhibition) [18]: 20 ± 1.5 μΜ
TGI (Total Growth Inhibition) [19]: 76 ± 7.2 μΜ
LD10 [20]: 75 mg/kg
GI50 [21, 26]: 30 ± 2.1 µM
IC50 [21, 27]: 56 ± 3.2 µM
GI50 [22, 26]: 11 ± 0.6 µM
IC50 [22, 27]: 92 ± 8.4 µM
GI50 [23, 26]: 10 ± 0.5 µM
IC50 [23, 27]: > 100 µM
GI50 [24, 26]: 8 ± 0.9 µM
IC50 [24, 27]: 45 ± 3.3 µM
GI50 [25, 26]: 18 ± 1 µM
IC50 [25, 27]: 88 ± 8.1 µM
